The values below are quoted from earlier work in US12133903B2, “Oral care article comprising a delivery carrier and solid hydrophilic particles comprising a bleaching agent” (The Procter & Gamble Company, priority 2020, dated 2024).

The conditions of this series: in water; supplier data sheet / Safety Data Sheet / Wikipedia.

Regarding `NC(N)=O.OO` [Urea Hydrogen Peroxide Adduct], the Solubility is reported as 80 parts per 100 parts of water.
